Results on 15 compounds are retold here after US11214561B2, “Histone methyltransferase EZH2 inhibitor, preparation method and pharmaceutical use thereof” (ANCUREALL PHARMACEUTICAL (SHANGHAI) CO., LTD., priority 2017, dated 2022).

Assay [1] has as its system Pfeiffer (EZH2 A677G). Put plainly: In vitro 50% growth inhibition (GI50), MTT/CCK8, Pfeiffer cells. As to conditions: for GI50: Homo sapiens, Pfeiffer, 240 h, Drug treatment for 10 days; for growth inhibitory activity / GI50 level against Pfeiffer, in words: EZH2 A677G mutant cells Pfeiffer. It is filed as cell-based, Human. The text has this:
(§1) In the present invention, a representative tumor cell line was selected to determine the cell growth inhibition activity of the present compound. Cell culture conditions and methods were in accordance with the requirements for each cell lines. The cells were subcultured in vitro for less than 3 generations each time, and as required, monoclone purification and identification of cell lines could be carried out.
(§2) The cell culture media used were RPMI1640 (Gibco) comprising 5-20% of fetal bovine serum (Gibco), 1% of double-antibiotic and 2 mM of glutamine.
(§3) Suspension culture cells were collected by centrifugation (1700 rpm, 3 minutes), and the supernatant was discarded and the cells were counted. According to each cell growth cycle, different concentrations of cells were prepared (1-10×10^4 cells per ml) and added to 96-well plates (Corning) with 100 μl per well, and then incubated overnight at 37° C., 5% CO2. The next day, the test compound was added to the cultured cells (2 wells in parallel). The final concentration of the solvent was less than 1/1,000. The cells were further cultured for 6 to 12 days and assayed by MTT.
(§4) The compound was stored at a concentration of 10 mM at −20° C. and diluted to two-fold or 10-fold series prior to use.
(§5) For the suspension culture cells, CCK8 was directly added to 10% of the final concentration. The cells were continually incubated for […].
(§6) The experiments were repeated 3 times and a statistical analysis of data was conducted.

Assay [2] relates to Karpas-422 (EZH2 Y641N). Nature of the assay: In vitro 50% growth inhibition (GI50), MTT/CCK8, Karpas-422 cells. Format: cell-based. As to conditions: Homo sapiens, KARPAS-422, 144 h; Drug treatment for 6 days.
Text: as §1, §2, §3, §4, §5, §6

Assay [3] relates to SU-DHL-8 (EZH2 WT). Nature of the assay: In vitro 50% growth inhibition (GI50), MTT/CCK8, SU-DHL-8 cells. As to conditions: Homo sapiens, SU-DHL-8, 144 h; Drug treatment for 6 days. It is filed as cell-based.
Text: as §1, §2, §3, §4, §5, §6

Where only a bound is given, the exact number is not on record here.

`C=CC(=O)N1CCC(N(CC)c2cc(-c3ccc(OCCN4CCOCC4)cc3)cc(C(=O)NCc3c(C)cc(C)[nH]c3=O)c2C)C1` (centres unmarked) [Example 48, N-(4,6-dimethyl-2-oxo-1,2-dihydro-pyridin-3-ylmethyl)-5-[(1-acryloyl-pyrrolidin-3-yl)-ethyl-amino]-4-methyl-4′-[2-(morpholin-4-yl)-ethoxy]-[1,1′-biphenyl]-3-carboxamide]: the values for the GI50 in assay [1], in assay [2] and in assay [3] were 10 to 100 nM, 100 to 1000 nM and greater than 1000 nM, respectively.
For `C=CC(=O)N1CCC(N(CC)c2cc(C#CCN3CCOCC3)cc(C(=O)NCc3c(C)cc(C)[nH]c3=O)c2C)C1` (centres unmarked) [Example 51, N-(4,6-dimethyl-2-oxo-1,2-dihydro-pyridin-3-ylmethyl)-3-[(1-acryloyl-pyrrolidin-3-yl)-ethyl-amino]-2-methyl-5-[3-(morpholin-4-yl)-propyn-1-yl]-benzamide] the same measures were 1 to 10 nM, 10 to 100 nM and greater than 1000 nM.
The like results for `C=CC(=O)N1CCC(N(CC)c2cc(-c3ccc(N4CCOCC4)nc3)cc(C(=O)NCc3c(C)cc(C)[nH]c3=O)c2C)C1` (centres unmarked) [Example 52, N-(4,6-dimethyl-2-oxo-1,2-dihydro-pyridin-3-ylmethyl)-3-[(1-acryloyl-pyrrolidin-3-yl)-ethyl-amino]-2-methyl-5-[6-(morpholin-4-yl)-pyridin-3-yl]-benzamide] were, in that order, 1 to 10 nM, 10 to 100 nM and greater than 1000 nM.
Turning to `C=CC(=O)N1CCC(N(CC)c2cc(-c3ccc(N4CCN(C)CC4)nc3)cc(C(=O)NCc3c(C)cc(C)[nH]c3=O)c2C)C1` (centres unmarked) [Example 53, N-(4,6-dimethyl-2-oxo-1,2-dihydro-pyridin-3-ylmethyl)-3-[(1-acryloyl-pyrrolidin-3-yl)-ethyl-amino]-2-methyl-5-[6-(4-methylpiperazin-1-yl)-pyridin-3-yl]-benzamide], the GI50 in assay [1] was 1 to 10 nM; in assay [2], 10 to 100 nM; in assay [3] it was greater than 1000 nM.
Take `C=CC(=O)N1CCC(N(CC)c2cc(-c3ccc(CN4CCOCC4)c(F)c3)cc(C(=O)NCc3c(C)cc(C)[nH]c3=O)c2C)CC1` [Example 62, N-(4,6-dimethyl-2-oxo-1,2-dihydro-pyridin-3-ylmethyl)-5-[(1-acryloyl-piperidin-4-yl)-ethyl-amino]-3′-fluoro-4-methyl-4′-(morpholin-4-ylmethyl)-[1,1′-biphenyl]-3-carboxamide]: the values for the concentration for 50% growth inhibition (GI50) in assay [1], in assay [2] and in assay [3] were 1 to 10 nM, 10 to 100 nM and greater than 1000 nM, respectively.
`C=CC(=O)N1CCC(N(CC)c2cc(-c3ccc(CN4CCC(OC)CC4)cc3)cc(C(=O)NCc3c(C)cc(C)[nH]c3=O)c2C)CC1` [Example 65, N-(4,6-dimethyl-2-oxo-1,2-dihydro-pyridin-3-ylmethyl)-5-[(1-acryloyl-piperidin-4-yl)-ethyl-amino]-4-methyl-4′-(4-methoxypiperidin-1-ylmethyl)-[1,1′-biphenyl]-3-carboxamide]: in assay [1], the “growth inhibitory activity / GI50 level against Pfeiffer, in words” value (shortened to “growth inhibitory activity / GI50 level”) is “subnanomolar level”. In addition, the GI50 in assay [1] is less than 1 nM; in assay [2], 10 to 100 nM; in assay [3] it was greater than 1000 nM.
On to `C=CC(=O)N1CCC(N(CC)c2cc(-c3cccc(CN4CCOCC4)c3)cc(C(=O)NCc3c(C)cc(C)[nH]c3=O)c2C)CC1` [Example 70, N-(4,6-dimethyl-2-oxo-1,2-dihydro-pyridin-3-ylmethyl)-5-[(1-acryloyl-piperidin-4-yl)-ethyl-amino]-4-methyl-3′-(morpholin-4-ylmethyl)-[1,1′-biphenyl]-3-carboxamide], for which the GI50 was 1 to 10 nM in assay [1], 10 to 100 nM in assay [2] and greater than 1000 nM in assay [3].
For `C=CC(=O)N1CCC(N(CC)c2cc(-c3ccc(CN4CCOCC4)c(Cl)c3)cc(C(=O)NCc3c(C)cc(C)[nH]c3=O)c2C)CC1` [Example 71, N-(4,6-dimethyl-2-oxo-1,2-dihydro-pyridin-3-ylmethyl)-5-[(1-acryloyl-piperidin-4-yl)-ethyl-amino]-3′-chloro-4-methyl-4′-(morpholin-4-ylmethyl)-[1,1′-biphenyl]-3-carboxamide], the GI50 in assay [1] is 1 to 10 nM; in assay [2] it was 10 to 100 nM; in assay [3], greater than 1000 nM.
The like results for `C=CC(=O)N1CCC(N(CC)c2cc(-c3cccc(CN4CCCN(C)CC4)c3)cc(C(=O)NCc3c(C)cc(C)[nH]c3=O)c2C)CC1` [Example 75, N-(4,6-dimethyl-2-oxo-1,2-dihydro-pyridin-3-ylmethyl)-5-[(1-acryloyl-piperidin-4-yl)-ethyl-amino]-4-methyl-3′-(4-methylhomopiperazin-1-ylmethyl)-[1,1′-biphenyl]-3-carboxamide] were, in that order, 1 to 10 nM, 10 to 100 nM and greater than 1000 nM.
As for `C=CC(=O)N1CCC(N(CC)c2cc(-c3ccc(CN4CC(OC)C4)cc3)cc(C(=O)NCc3c(C)cc(C)[nH]c3=O)c2C)CC1` [Example 76, N-(4,6-dimethyl-2-oxo-1,2-dihydro-pyridin-3-ylmethyl)-5-[(1-acryloyl-piperidin-4-yl)-ethyl-amino]-4-methyl-4′-(3-methoxy-1-azetidinylmethyl)-[1,1′-biphenyl]-3-carboxamide], the results for the GI50 in assay [1], in assay [2] and in assay [3] were 1 to 10 nM, 10 to 100 nM and greater than 1000 nM, respectively.
Consider `C=CC(=O)N1CCC(N(CC)c2cc(-c3ccc(CN4CCC(OCCOC)CC4)cc3)cc(C(=O)NCc3c(C)cc(C)[nH]c3=O)c2C)CC1` [Example 77, N-(4,6-dimethyl-2-oxo-1,2-dihydro-pyridin-3-ylmethyl)-5-[(1-acryloyl-piperidin-4-yl)-ethyl-amino]-4-methyl-4′-[4-(2-methoxyethyloxy)-piperidin-1-ylmethyl]-[1,1′-biphenyl]-3-carboxamide], for which, in assay [1], the “growth inhibitory activity / GI50 level” value is recorded as “subnanomolar level”. The GI50 in assay [1] is less than 1 nM; in assay [2], 10 to 100 nM; in assay [3], greater than 1000 nM.
On to `C=CC(=O)N1CCC(N(CC)c2cc(-c3ccc(CN4CCC(N5CCOCC5)CC4)cc3)cc(C(=O)NCc3c(C)cc(C)[nH]c3=O)c2C)CC1` [Example 81], for which the GI50 in assay [1] is 1 to 10 nM; in assay [2], 10 to 100 nM; in assay [3], greater than 1000 nM.
In the case of `C=CC(=O)N1CCC(N(CC)c2cc(-c3ccc(CN4CCC5(CCCO5)CC4)cc3)cc(C(=O)NCc3c(C)cc(C)[nH]c3=O)c2C)CC1` [Example 87, N-(4,6-dimethyl-2-oxo-1,2-dihydro-pyridin-3-ylmethyl)-5-[(1-acryloyl-piperidin-4-yl)-ethyl-amino]-4-methyl-4′-(1-oxa-8-aza-spiro[4.5]decan-8-ylmethyl)-[1,1′-biphenyl]-3-carboxamide], in assay [1], the “growth inhibitory activity / GI50 level” value is “subnanomolar level”. Moreover, the GI50 in assay [1] is less than 1 nM; in assay [2] it was 10 to 100 nM; in assay [3], greater than 1000 nM.
For `C=CC(=O)N1CCC(N(CC)c2cc(-c3ccc(CN4CCC(OCC)CC4)cc3)cc(C(=O)NCc3c(C)cc(C)[nH]c3=O)c2C)CC1` [Example 88, N-(4,6-dimethyl-2-oxo-1,2-dihydro-pyridin-3-ylmethyl)-5-[(1-acryloyl-piperidin-4-yl)-ethyl-amino]-4-methyl-4′-(4-ethoxypiperidin-1-ylmethyl)-[1,1′-biphenyl]-3-carboxamide] the same measures were “subnanomolar level”, less than 1 nM, 10 to 100 nM and greater than 1000 nM.
The like results for `C=CC(=O)N1CCC(N(CC)c2cc(-c3ccc(CN4CCN(C5CCOCC5)CC4)cc3)cc(C(=O)NCc3c(C)cc(C)[nH]c3=O)c2C)CC1` [Example 89, N-(4,6-dimethyl-2-oxo-1,2-dihydro-pyridin-3-ylmethyl)-5-[(1-acryloyl-piperidin-4-yl)-ethyl-amino]-4-methyl-4′-[4-(tetrahydropyran-4-yl)-piperazin-1-ylmethyl]-[1,1′-biphenyl]-3-carboxamide] were, in that order, “subnanomolar level”, less than 1 nM, 10 to 100 nM and greater than 1000 nM.
